Article PMC4841942 (Cell chemical biology, 2016)
Like-named read-outs stand apart in the source and are kept apart here.

Tests used:
p97 WT [1] = molecular target: T1, p97 WT (Homo sapiens, UniProt P55072); test: ATPase activity assay, recombinant p97 WT; format: biochemical
p97 WT [2] = molecular target: T1, p97 WT; test: TR-FRET binding assay
p97 A530T [3] = molecular target: T2, p97 A530T (Homo sapiens, UniProt P55072, A530T); test: ATPase activity assay, recombinant p97 A530T; format: biochemical
T2 sequence (P55072 whole entry A530T): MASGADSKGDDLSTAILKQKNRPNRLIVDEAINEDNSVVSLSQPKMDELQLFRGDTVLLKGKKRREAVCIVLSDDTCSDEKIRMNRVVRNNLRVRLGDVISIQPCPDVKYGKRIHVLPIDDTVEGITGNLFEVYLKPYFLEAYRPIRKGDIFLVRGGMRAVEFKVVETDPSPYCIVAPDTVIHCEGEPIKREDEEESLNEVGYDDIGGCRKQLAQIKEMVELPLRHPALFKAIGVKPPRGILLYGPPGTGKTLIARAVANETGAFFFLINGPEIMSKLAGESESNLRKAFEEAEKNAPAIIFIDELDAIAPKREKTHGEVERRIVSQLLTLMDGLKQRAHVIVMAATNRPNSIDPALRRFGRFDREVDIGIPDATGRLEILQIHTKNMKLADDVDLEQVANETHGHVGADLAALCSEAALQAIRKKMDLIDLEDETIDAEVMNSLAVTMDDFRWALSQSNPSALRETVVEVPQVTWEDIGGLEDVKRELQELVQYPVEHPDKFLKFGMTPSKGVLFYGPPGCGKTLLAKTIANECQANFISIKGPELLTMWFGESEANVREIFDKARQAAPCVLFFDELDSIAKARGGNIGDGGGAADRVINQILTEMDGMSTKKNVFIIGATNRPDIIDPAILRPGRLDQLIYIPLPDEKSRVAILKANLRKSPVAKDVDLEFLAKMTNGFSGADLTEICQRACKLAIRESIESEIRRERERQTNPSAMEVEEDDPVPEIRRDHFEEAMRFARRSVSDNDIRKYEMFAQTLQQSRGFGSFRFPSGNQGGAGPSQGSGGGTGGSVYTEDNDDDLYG

p97 A530T [4] = molecular target: T2, p97 A530T; test: TR-FRET binding assay; conditions: for increase in apparent Kd for A530T: A530T versus WT
[5] = system: HCT116 873-R and 873-S cells; test: Cell viability; format: cell-based
[6] = molecular target: T3, p97 complexes in HCT116 cells (Homo sapiens, UniProt P55072); test: Immunoblot of p97 immunoprecipitated from inhibitor-treated cells; format: cell-based; conditions: for increase in UFD1/NPL4 binding to p97 relative to control: inhibitor concentrations causing similar CHOP and ATF4 induction
Target sequence in this assay (P55072 2-806 limits assumed, one chain of several): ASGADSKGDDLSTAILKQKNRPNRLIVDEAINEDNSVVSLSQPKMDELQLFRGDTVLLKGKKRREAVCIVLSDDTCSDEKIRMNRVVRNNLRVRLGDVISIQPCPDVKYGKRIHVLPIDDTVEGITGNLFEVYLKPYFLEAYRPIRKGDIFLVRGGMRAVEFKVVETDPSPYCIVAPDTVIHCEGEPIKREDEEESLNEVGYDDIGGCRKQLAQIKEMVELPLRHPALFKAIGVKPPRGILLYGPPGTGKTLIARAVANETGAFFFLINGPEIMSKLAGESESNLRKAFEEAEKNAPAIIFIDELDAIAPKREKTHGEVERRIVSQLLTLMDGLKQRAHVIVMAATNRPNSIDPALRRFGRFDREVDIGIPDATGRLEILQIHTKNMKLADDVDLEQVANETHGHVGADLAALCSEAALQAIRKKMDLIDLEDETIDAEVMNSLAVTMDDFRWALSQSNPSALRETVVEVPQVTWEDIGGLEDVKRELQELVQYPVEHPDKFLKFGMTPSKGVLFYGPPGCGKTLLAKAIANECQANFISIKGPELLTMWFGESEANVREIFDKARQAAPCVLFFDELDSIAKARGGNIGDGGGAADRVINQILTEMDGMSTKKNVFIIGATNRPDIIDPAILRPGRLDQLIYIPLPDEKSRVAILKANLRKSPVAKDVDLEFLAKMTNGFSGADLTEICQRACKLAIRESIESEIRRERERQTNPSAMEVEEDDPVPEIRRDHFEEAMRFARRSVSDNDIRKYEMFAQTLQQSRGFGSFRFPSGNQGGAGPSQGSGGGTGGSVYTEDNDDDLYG

[7] = system: CHOP, ATF4 and polyubiquitin in HCT116 cells; test: Immunoblot of biomarkers of p97 inhibition; format: cell-based; conditions: 6 hours
[8] = molecular target: T3, p97 complexes in HCT116 cells; test: LC-MS/MS analysis of p97 complexes purified from inhibitor-treated cells; format: cell-based; conditions: HCT116, 5 µM NMS-873, 6 hours, LC-MS/MS spectrum count
Target sequence in this assay (P55072 whole entry, one chain of several): as the sequence (P55072 whole entry A530T) above, with T530A counted along it

[9] = system: HCT116 cells engineered with p97 A530T; test: Cell viability; format: cell-based; conditions: homozygous A530T
[10] = HCT116, 1 hour, concentration dependent, immunoblot
[11] = HCT116, after washout of 5 µM NMS-873 (120 minutes)

T1 sequence (P55072 whole entry): as the sequence (P55072 whole entry A530T) above, with T530A counted along it

Molecule `Nc1ncnc2c1ncn2[C@@H]1O[C@H](CO[P@](=O)(O)O[P@](=O)(O)O[P@@](=O)(O)S)[C@@H](O)[C@H]1O` [ATP-γ-S] has an IC50 (p97 WT [1]) of 247 nM, a Kd (p97 WT [2]) of 25 nM and an IC50 (p97 A530T [3]) of 6600 nM. For the same molecule, the Kd (p97 A530T [4]) was 140 nM and the “increase in apparent Kd for A530T” value (p97 A530T [4]) was 5- to 6 fold.

For NMS-859, the “sensitivity of 873-R compared with 873-S cells” value [5] was “similarly sensitive” and the “increase in UFD1/NPL4 binding to p97 relative to control” value ([6]; HCT116, 1 hour) was “up to 2.1 fold”.

In the case of `Cc1cc(OCc2nnc(SC3CCCC3)n2-c2cccnc2)ccc1-c1ccc(S(C)(=O)=O)cc1` [NMS-873], the “induction of CHOP, ATF4 and polyubiquitin in 873-R compared with 873-S cells” value ([7]; NMS-873 2 and 5 µM, CB-5083 0.3 and 2.5 µM) is reported as “diminished responses”, the “induction of CHOP, ATF4 and polyubiquitin in engineered A530T cells” value ([7]; HDR cells homozygous for A530T) is reported as “diminished induction” and the “increase in ubiquitin bound to p97” value [8] is reported as 15 fold. For the same molecule, the “increase in UFD1 and NPL4 bound to p97” value [6, 10] was 12- to 15 fold, the “increase in p47 bound to p97” value [6, 10] was 2.5 fold and the “t1/2 of decrease of NPL4 binding to p97 during recovery” value [6, 11] was 17 min. The “t1/2 of decrease of UFD1 binding to p97 during recovery” value [6, 11] was 13 min.

`CC(C)C[C@H](NC(=O)[C@H](Cc1ccccc1)NC(=O)c1cnccn1)B(O)O` [bortezomib] was tested, and the “sensitivity of 873-R compared with 873-S cells” value [5] was “similarly sensitive”.

For `O[C@@H](CS)[C@@H](O)CS` [DTT], the “sensitivity of 873-R compared with 873-S cells” value [5] was “similarly sensitive”.

`C[C@H]1CCC/C=C/[C@@H]2C[C@H](O)C[C@H]2[C@H](O)/C=C/C(=O)O1` [brefeldin A] was tested, and the “sensitivity of 873-R compared with 873-S cells” value [5] was “similarly sensitive”.

For `CC1(C)C(N(O)C(=O)Nc2ccc(Cl)cc2)N(c2ccc(Cl)cc2)C(=O)N1CC(=O)N/N=C/C=C/c1ccc([N+](=O)[O-])o1` (stereo not drawn) [EerI, Eeyarestatin I], the “sensitivity of 873-R compared with 873-S cells” value [5] was “similarly sensitive” and the “increase in UFD1/NPL4 binding to p97 relative to control” value ([6]; HCT116, 1 hour) was “up to 2.1 fold”.

For tunicamycin, the “sensitivity of 873-R compared with 873-S cells” value [5] was “similarly sensitive”.

With `c1ccc(CNc2nc(NCc3ccccc3)c3ccccc3n2)cc1` [DBeQ] the “sensitivity of 873-R compared with 873-S cells” value [5] was “similarly sensitive” and the “increase in UFD1/NPL4 binding to p97 relative to control” value ([6]; HCT116, 1 hour) was “up to 2.1 fold”.

For `Cc1cc2c(C(N)=O)cccc2n1-c1nc2c(c(NCc3ccccc3)n1)COCC2` [CB-5083], the “sensitivity of engineered A530T cells” value [9] was “remained sensitive” and the “sensitivity of 873-R compared with 873-S cells” value [5] was “similarly sensitive”.

For `Nc1ncnc2c1ncn2[C@@H]1O[C@H](COP(=O)(O)OP(=O)(O)O)[C@@H](O)[C@H]1O` [ADP], the “fold less sensitive to ADP than ATP-γ-S” value (p97 WT [1]; WT ATPase activity) was 18 fold, the IC50 (p97 WT [1]; read-out: IC50 ATPase activity, WT p97) was 4500 nM and the Kd (p97 WT [2]; read-out: apparent Kd, WT p97, TR-FRET, non-linear regression) was 600 nM. For the same molecule, the “fold less sensitive to ADP than ATP-γ-S” value (p97 A530T [3]; A530T ATPase activity) was 3.7 fold, the IC50 (p97 A530T [3]; read-out: IC50 ATPase activity, A530T p97) was 24600 nM and the “increase in apparent Kd for A530T” value (p97 A530T [4]) was 5- to 6 fold. It also gave a Kd (p97 A530T [4]; read-out: apparent Kd, A530T p97, TR-FRET) of 3800 nM.

With `CC(C)C[C@H](NC(=O)[C@H](CCc1ccccc1)NC(=O)CN1CCOCC1)C(=O)N[C@@H](Cc1ccccc1)C(=O)N[C@@H](CC(C)C)C(=O)[C@@]1(C)CO1` [carfilzomib] the “sensitivity of 873-R compared with 873-S cells” value [5] was “similarly sensitive”.

B1: p47: recombinant p97 cofactor protein with N-terminal hexahistidine tag (protein)
chain: MAAERQEALREFVAVTGAEEDRARFFLESAGWDLQIALASFYEDGGDEDIVTISQATPSSVSRGTAPSDNRVTSFRDLIHDQDEDEEEEEGQRFYAGGSERSGQQIVGPPRKKSPNELVDDLFKGAKEHGAVAVERVTKSPGETSKPRPFAGGGYRLGAAPEEESAYVAGEKRQHSSQDVHVVLKLWKSGFSLDNGELRSYQDPSNAQFLESIRRGEVPAELRRLAHGGQVNLDMEDHRDEDFVKPKGAFKAFTGEGQKLGSTAPQVLSTSSPAQQAENEAKASSSILIDESEPTTNIQIRLADGGRLVQKFNHSHRISDIRLFIVDARPAMAATSFILMTTFPNKELADESQTLKEANLLNAVIVQRLT
modifications: left off: His6, N-terminal, state not stated
For B1, the “cofactor concentration of maximum inhibition of ATPase activity” value (p97 WT [1]; WT p97, biphasic response, recovery at 200 nM) was 3.1 nM.
